The test deals with Klebsiella pneumoniae strain MS6771. Nature of the test: MIC by broth microdilution (CLSI). Format: cell-based. To be noted: for antibiotic sensitivity of resistant strain: Klebsiella pneumoniae MS6771, addition of sub-inhibitory PBT2+zinc(II) ions; for MIC: Klebsiella pneumoniae, MS6771, Klebsiella pneumoniae.
Where [1] appears, read: CQ: 0 μM, Zinc: 0 μM, read-out: MIC.
[2] abbreviates: CQ: 64 μM, Zinc: 256 μM, read-out: MIC.
The mark [3] stands for this setting: PBT2: 0 μM, Zinc: 0 μM, read-out: MIC.
Where [4] appears, read: PBT2: 64 μM, Zinc: 256 μM, read-out: MIC.
The mark [5] stands for this setting: Zinc: 256 μM (CQ panel), read-out: MIC.
Where [6] appears, read: Zinc: 256 μM (PBT2 panel), read-out: MIC.

Each structure is given as a SMILES string. ≈ marks a conversion by molar mass, not a printed value. Read-outs that look alike come from different tables or passages of the source.

This note sets out measurements from patent US20200261440A1, “ZINC IONOPHORES AND USES THEREOF” (THE UNIVERSITY OF QUEENSLAND, priority 2017, published 2020).

For `CN(C)c1cc(NC(=O)CNC(C)(C)C)c(O)c2c1C[C@H]1C[C@H]3[C@H](N(C)C)C(O)=C(C(N)=O)C(=O)[C@@]3(O)C(O)=C1C2=O` [Tigecycline, tigecycline], the “antibiotic sensitivity of resistant strain” value is on record as “became sensitive”. Moreover, inhibition of growth (CQ: 0 μM, Zinc: 0 μM) (MIC) required 4 µg/mL (≈ 6.83 µM). 4 µg/mL (≈ 6.83 µM) was the least that counted as inhibitory (CQ: 64 μM) (MIC). In addition, the MIC (CQ: 64 μM, Zinc: 256 μM) was found to be 4 µg/mL (≈ 6.83 µM). For the same molecule, the MIC (PBT2: 0 μM, Zinc: 0 μM) was 4 µg/mL (≈ 6.83 µM). For the same molecule, under “PBT2: 64 μM”, the MIC stood at 2 µg/mL (≈ 3.41 µM). Where the note is “PBT2: 64 μM, Zinc: 256 μM”, this molecule gave an MIC of 2 µg/mL (≈ 3.41 µM). This molecule had an MIC (Zinc: 256 μM (CQ panel)) of 4 µg/mL (≈ 6.83 µM). For the setting “Zinc: 256 μM (PBT2 panel)”, this molecule displayed an MIC of 4 µg/mL (≈ 6.83 µM).

As for `NCC[C@H](O)C(=O)N[C@@H]1C[C@H](N)[C@@H](O[C@H]2O[C@H](CN)[C@@H](O)[C@H](O)[C@H]2O)[C@H](O)[C@H]1O[C@H]1O[C@H](CO)[C@@H](O)[C@H](N)[C@H]1O` [Amikacin, amikacin], the “antibiotic sensitivity of resistant strain” value was “not”. Moreover, under setting [1], the minimum inhibitory concentration (MIC) was over 128 µg/mL. The MIC under setting [2] was over 128 µg/mL. Moreover, the MIC (CQ: 64 μM, read-out: MIC) is over 128 µg/mL. Further, the MIC under setting [3] is over 128 µg/mL. Moreover, under setting [4], the MIC is over 128 µg/mL. The MIC (PBT2: 64 μM, read-out: MIC) was over 128 µg/mL. Also, the MIC under setting [5] is over 128 µg/mL. Further, the MIC under setting [6] is over 128 µg/mL.

For the molecule `CO[C@@]1(NC(=O)Cc2cccs2)C(=O)N2C(C(=O)O)=C(COC(N)=O)CS[C@@H]21` [Cefoxitin, cefoxitin], the MIC under setting [1] is 128 µg/mL (≈ 299 µM); the MIC under setting [2] stood at 64 µg/mL (≈ 150 µM); the MIC (CQ: 64 μM, read-out: MIC) stood at 64 µg/mL (≈ 150 µM); the MIC under setting [3] was 128 µg/mL (≈ 299 µM); the MIC under setting [4] came out at 64 µg/mL (≈ 150 µM); the MIC (PBT2: 64 μM, read-out: MIC) is 64 µg/mL (≈ 150 µM). The MIC under setting [5] stood at 128 µg/mL (≈ 299 µM) and the MIC under setting [6] stood at 128 µg/mL (≈ 299 µM).

Regarding `CC(C)(O/N=C(\C(=O)N[C@@H]1C(=O)N2C(C(=O)[O-])=C(C[n+]3ccccc3)CS[C@H]12)c1csc(N)n1)C(=O)O` [Ceftazidime, ceftazidime], the minimal inhibitory concentration (MIC) was determined as 32 µg/mL (≈ 58.5 µM) under setting [1]; 16 µg/mL (≈ 29.3 µM) under setting [2]; 16 µg/mL (≈ 29.3 µM) (CQ: 64 μM, read-out: MIC); 32 µg/mL (≈ 58.5 µM) under setting [3]; 32 µg/mL (≈ 58.5 µM) under setting [4]; 32 µg/mL (≈ 58.5 µM) (PBT2: 64 μM, read-out: MIC). The MIC is 32 µg/mL (≈ 58.5 µM) under setting [5] and 32 µg/mL (≈ 58.5 µM) under setting [6].

As for `CCO/N=C(\C(=O)N[C@@H]1C(=O)N2C(C(=O)[O-])=C(Sc3nc(-c4cc[n+](C)cc4)cs3)CS[C@H]12)c1nsc(N)n1` [Ceftaroline], the MIC by setting is: under setting [1], over 128 µg/mL; under setting [2], over 128 µg/mL; (CQ: 64 μM, read-out: MIC) over 128 µg/mL; under setting [3], over 128 µg/mL; under setting [4], over 128 µg/mL; (PBT2: 64 μM, read-out: MIC) over 128 µg/mL. Moreover, the MIC under setting [5] was over 128 µg/mL and the MIC under setting [6] was over 128 µg/mL.

Turning to `C[C@@H](O)[C@H]1C(=O)N2C(C(=O)O)=C(S[C@@H]3CN[C@H](C(=O)N(C)C)C3)[C@H](C)[C@H]12` [Meropenem, meropenem], the MIC was 64 µg/mL (≈ 167 µM) under setting [1]; 8 to 16 µg/mL (≈ 20.9 to 41.7 µM) under setting [2]; 8 to 16 µg/mL (≈ 20.9 to 41.7 µM) (CQ: 64 μM, read-out: MIC); 64 µg/mL (≈ 167 µM) under setting [3]; 16 µg/mL (≈ 41.7 µM) under setting [4]; 32 µg/mL (≈ 83.4 µM) (PBT2: 64 μM, read-out: MIC). The MIC reads like this: under setting [5], 16 to 32 µg/mL (≈ 41.7 to 83.4 µM); under setting [6], 16 to 32 µg/mL (≈ 41.7 to 83.4 µM).

Turning to `C[C@H]1c2cccc(O)c2C(=O)C2=C(O)[C@]3(O)C(=O)C(C(N)=O)=C(O)[C@@H](N(C)C)[C@@H]3[C@@H](O)[C@@H]21` [Doxycycline, doxycycline], the MIC runs as follows: under setting [1], 8 to 16 µg/mL (≈ 18 to 36 µM); under setting [2], 8 µg/mL (≈ 18 µM); (CQ: 64 μM, read-out: MIC) 8 µg/mL (≈ 18 µM); under setting [3], 8 to 16 µg/mL (≈ 18 to 36 µM); under setting [4], 4 µg/mL (≈ 9 µM); (PBT2: 64 μM, read-out: MIC) 4 to 8 µg/mL (≈ 9 to 18 µM). Further, the MIC under setting [5] lay within 8 to 16 µg/mL (≈ 18 to 36 µM) and the MIC under setting [6] was in the range of 8 to 16 µg/mL (≈ 18 to 36 µM).

Take `COc1cc(Cc2cnc(N)nc2N)cc(OC)c1OC` [Trimethoprim, trimethoprim]: the MIC is over 128 µg/mL under setting [1]; over 128 µg/mL under setting [2]; over 128 µg/mL (CQ: 64 μM, read-out: MIC); over 128 µg/mL under setting [3]; over 128 µg/mL under setting [4]; over 128 µg/mL (PBT2: 64 μM, read-out: MIC). Moreover, the MIC is, setting by setting: under setting [5], over 128 µg/mL; under setting [6], over 128 µg/mL.

The term MIC denotes the lowest concentration found to suppress growth.
